The record followed here is PMC12498190, “A Photocaged N‐Phosphonopiperidinone as a Selective Photo‐Cleavable DPP8/9 Inhibitor” (Chembiochem, 2025).

The target in data set [1] is DPP9 (Homo sapiens, UniProt Q86TI2). Description: In vitro gel-based competitive ABPP in HEK293 cell lysates, 100 kDa band. More on the design: endogenous in cells; host or cells: HEK293 (Cytion, Germany, 300192). The note with it: HEK293 lysate; 10 µM probe, 1 h; ca. 100 kDa (DPP9) and 70 kDa (PREP); regardless of irradiation. On the procedure:
Therefore, HEK293 cell lysates were pre‐incubated with 10 µM 5 or DMSO vehicle control for 30 min, followed by a labeling reaction with 2 µM of the serine hydrolase‐specific ABP fluorophosphonate‐alkyne (≡FP) or 10 µM 2 (Figure 2B). […] Of note, this band has been previously assigned as DPP9 (DPP8 would migrate in the same range, but is only expressed at low levels in the used cell line and therefore cannot be visualized by this approach).^[ [36] ^, [37] ^] […] Again, this labeling was observed regardless of prior irradiation. Subsequently, the competitive labeling experiment was conducted by pre‐incubation with compound 5, with or without subsequent irradiation.
(§1) Figure 2 Competitive ABPP with photo‐cleavable inhibitor 5 in HEK293 cells. A) Schematic overview of a competitive ABPP experiment. A proteome is pre‐incubated with a competitor, followed by a labeling reaction with an activity‐based probe (ABP). In the case of a photocaged inhibitor, the active compound can be released via irradiation. Target proteins of the competitor cannot be bound by the ABP, resulting in an absence of the respective protein band in‐gel analysis. Created in BioRender. Najdzion, M. (2025) https://BioRender.com/84zn8cb B) Gel‐based competitive ABPP experiment in HEK293 cell lysates with the broadband serine hydrolase ABP ≡FP or the DPP8/9‐directed ABP 2 and the photocaged inhibitor 5, at the indicated concentrations, after or without prior irradiation with green light for 5 min. The corresponding pre‐incubation time for 5 was 30 min. C) Corresponding in situ competitive ABPP experiment in HEK293 cell culture, again with 10 µM 2 for 1 h. Labeling was competed by pre‐incubation with 20 µM 5 for 1 h, followed by an activation of the photocaged inhibitor by irradiation for 5 min with a green LED lamp, if applicable. D) Green light treatment has no cytotoxic effect. HEK293 cells were irradiated with a green LED lamp in the presence of 0.5% DMSO for 5 min (‘light’), and cell viability was measured after 24 h. […] Data was normalized to the non‐irradiated control (‘dark’). E) Green light treatment leads to the release of the active DPP8/9 inhibitor. HEK293 cells were incubated with compound 1 or 5 for 24 h. For both compounds, cell viability was measured under ‘dark’ (not irradiated) and ‘light’ (irradiated for 5 min with a green LED lamp after the addition of the inhibitor) conditions. […] Data was normalized to the non‐irradiated DMSO control.
For in vitro ABPP, cell lysates were generated from HEK293 cells grown on a 10 cm tissue dish. […] The cell lysates were cleared via centrifugation (30 min, 20,817 × g, 4 °C), and protein concentration was determined with a modified Bradford assay using Roti‐Nanoquant (Carl Roth, Germany). […]

Data set [2] is classed as physicochemical. The note with it: longer irradiation times, green LED 520-530 nm, up to 5 min. On the procedure:
With 5 in our hands, we then started our probe characterization by determining the velocity of the photorelease reaction, i.e., the light‐triggered cleavage of the photocage, thereby delivering again the “active” inhibitor 1. To this end, a 50 µM solution of 5 in 10% acetonitrile in MS‐grade water was irradiated with a green LED lamp (λ = 520‐530 nm, 30 W) for the indicated time periods, and the release of the active inhibitor 1 was quantified via liquid chromatography‐mass spectrometry (LC–MS) analysis (Figure 1A). […] After 3 min, cleavage was quantitative (>99%). Importantly, the only products observed were the desired ‘free’ inhibitor 1 and the cleaved photogroup, indicating a clean activation to 1.
Figure 1 DPP inhibition by photo‐cleavable inhibitors. A) LC‐MS analysis of the photocleavage reaction of 5 after irradiation with green light. 50 µM of compound 5 was irradiated with a green LED lamp (λ = 520‐530 nm, 30 W) for up to 5 min, and the resulting reaction mixture was analyzed via LC‐MS. […] B) Resulting quantification of the photolysis of 5 based on peak areas depicted in A) (n = 3 technical replicates). […] Enzyme activity was determined by measuring the release of AMC from the substrate GP‐AMC. […]
Compound 5 was dissolved in DMSO. In order to quantify the effect of irradiation time on photocleavage of the BODIPY moiety, 50 µL aliquots of a 50 µM solution of 5 in 10% acetonitrile (ACN; VWR Chemicals, USA) in MS‐grade water (VWR Chemicals, USA) were irradiated for 0–5 min with a green LED lamp (λ = 520–530 nm, 30 W; Eurolite, Germany) at room temperature (RT) and gentle shaking (final DMSO concentration: 0.5%).
Quantification of inhibitor release was then determined via LC‐MS on an LTQ XL linear ion trap mass spectrometer (ITMS; Thermo Fisher Scientific, USA) coupled to a DIONEX UltiMate 3000 system (Thermo Fisher Scientific, USA), operated using Xcalibur software 4.4.16.14. […] Quantification was done using Freestyle v1.6. based on the UV spectra (λ = 254 nm) using the Avalon peak detection algorithm. […]

The subject of data set [3] is HEK293 cells. Description: Cell viability assay (MTT). The data set is classed as cell-based, human. As to conditions: low micromolar range, 24 h. On the procedure:
as §1
(§2) In order to validate target engagement in living cells and potential cytotoxic effects of green light treatment, we determined cell viability of HEK293 cells after 24 h inhibitor treatment with 5 with or without 5 min green light irradiation, as the application of DPP8/9 inhibitors at high concentrations and thus elimination of any residual DPP8/9 activity results in cytotoxicity.^[ [38], [39] ^– [40] ^] As a control, effects of green light treatment on cell viability were examined in the absence of any inhibitor after 24 h, again with or without 5 min irradiation (Figure 2D). […] Of note, no additional effect of the photocage on cell viability was observed. In summary, our cell viability studies confirm target engagement in live cells exclusively after photorelease, thereby again confirming the suitability of the photocaged DPP8/9 inhibitor 5 as a cell biological tool compound.
(§3) To investigate the cytotoxicity of compounds, 2 × 10^4 HEK293 cells were cultured in DMEM (+/+) on 96‐well flat‐bottom cell culture plates (Sarstedt, Germany) as described above. After 24 h, cells were treated with indicated concentrations of compounds (final DMSO concentration: 0.5%) and, if applicable, irradiated with a green LED lamp (λ = 520−530 nm; Eurolite, Germany) for 5 min. Control cells were treated with DMSO. Cell viability was measured 24 h after compound treatment. To this end, 25 µL Thiazolyl Blue Tetrazolium Bromide (MTT) solution (5 mg mL^−1 MTT (Sigma Aldrich, USA) in PBS (Gibco, USA)) was added to each well directly into the medium. After 3 h of incubation at 37 °C, the medium was removed and formazan crystals were dissolved by adding 150 µL DMSO (1 h, 37 °C, gentle shaking), followed by an absorbance measurement at 570 and 630 nm as a reference using a Tecan Spark 10 M multimode microplate reader (Tecan Group Ltd., Switzerland). Each experiment was performed with five replicates. Relative cell viability was expressed as a percentage relative to the DMSO‐treated control cells.

Data set [4] in a line: Cell viability assay (MTT). The data set is classed as cell-based, human. As to conditions: human, HEK293 cells, regardless of irradiation, read-out: Remaining viability. On the procedure:
as §1, §2, §3

DPP9, sequence (Q86TI2 whole entry): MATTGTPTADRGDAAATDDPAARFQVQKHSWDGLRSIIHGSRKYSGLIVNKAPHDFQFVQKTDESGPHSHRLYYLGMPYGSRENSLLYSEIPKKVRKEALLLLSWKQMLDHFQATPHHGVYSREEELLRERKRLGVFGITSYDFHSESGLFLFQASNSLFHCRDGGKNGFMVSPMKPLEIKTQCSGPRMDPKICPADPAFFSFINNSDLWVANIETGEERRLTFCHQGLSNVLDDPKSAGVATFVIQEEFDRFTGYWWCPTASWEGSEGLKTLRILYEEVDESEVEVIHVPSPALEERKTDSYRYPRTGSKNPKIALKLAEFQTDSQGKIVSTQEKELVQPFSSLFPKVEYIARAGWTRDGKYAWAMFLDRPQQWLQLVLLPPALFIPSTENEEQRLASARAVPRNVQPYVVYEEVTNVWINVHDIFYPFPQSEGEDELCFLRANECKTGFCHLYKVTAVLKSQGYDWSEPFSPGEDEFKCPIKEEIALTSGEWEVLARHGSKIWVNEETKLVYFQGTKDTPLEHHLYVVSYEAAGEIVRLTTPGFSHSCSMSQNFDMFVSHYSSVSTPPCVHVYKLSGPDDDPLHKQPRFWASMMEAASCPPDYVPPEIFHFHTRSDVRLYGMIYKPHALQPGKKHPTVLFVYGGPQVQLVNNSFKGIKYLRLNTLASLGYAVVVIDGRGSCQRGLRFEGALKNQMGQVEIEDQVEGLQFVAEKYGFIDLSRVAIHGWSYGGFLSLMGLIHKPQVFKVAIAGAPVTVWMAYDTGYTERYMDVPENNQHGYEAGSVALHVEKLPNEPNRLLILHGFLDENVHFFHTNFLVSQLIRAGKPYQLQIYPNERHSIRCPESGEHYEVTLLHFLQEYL

Turning to `C#CCCCP(=O)(OCC)N1CCC[C@H](N)C1=O` (some centres unmarked) [Compound 2], the “Bands labeled by the probe in ABPP (in words)” value in data set [1] is “two bands”.

`CCCCCc1ccc(SCCP(=O)(OCC)N2CCC[C@H](N)C2=O)cc1` (some centres unmarked) [Compound 1]: the “Photostability under photorelease conditions (in words)” value in data set [2] is “did not lead to further side products”. Further, the “Effect on cell viability (in words)” value in data set [3] is “did not significantly affect cell viability”. In data set [4] (25 µM), the viability (usually a read-out of living cells in per cent, often relative to untreated cells) at 24 h, 25 µM was approximately 65%. In data set [4] (50 µM), the viability at 24 h, 50 µM was approximately 15%.
